The target of series [1] is T1, Human DPP4 (Homo sapiens, UniProt P27487).
T1 construct: purchased Sigma-Aldrich MAK088
In words: DPP4 activity assay (DPP4 Activity Assay Kit, fluorescent substrate). The series is classed as biochemical. The following applies: Human DPP4; read-out: DPP4 inhibition IC50 [nM]). The method in brief: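 Human DPP4 activity measured with a commercial kit: test compound in assay buffer mixed with a fluorogenic substrate cleaved by the enzyme. Fluorescence read every 1 minute over 20 minutes.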

A short description of series [2]: Pharmacokinetic profiling, plasma and lung levels after intratracheal or inhalation delivery in the mouse. The series is classed as in vivo. The following applies: mouse; IT dosing at 2 mg/kg (FIG. 2); after 48 h.

As a reminder, the IC50 is the midpoint of a concentration-inhibition curve.

T1 sequence (P27487 whole entry): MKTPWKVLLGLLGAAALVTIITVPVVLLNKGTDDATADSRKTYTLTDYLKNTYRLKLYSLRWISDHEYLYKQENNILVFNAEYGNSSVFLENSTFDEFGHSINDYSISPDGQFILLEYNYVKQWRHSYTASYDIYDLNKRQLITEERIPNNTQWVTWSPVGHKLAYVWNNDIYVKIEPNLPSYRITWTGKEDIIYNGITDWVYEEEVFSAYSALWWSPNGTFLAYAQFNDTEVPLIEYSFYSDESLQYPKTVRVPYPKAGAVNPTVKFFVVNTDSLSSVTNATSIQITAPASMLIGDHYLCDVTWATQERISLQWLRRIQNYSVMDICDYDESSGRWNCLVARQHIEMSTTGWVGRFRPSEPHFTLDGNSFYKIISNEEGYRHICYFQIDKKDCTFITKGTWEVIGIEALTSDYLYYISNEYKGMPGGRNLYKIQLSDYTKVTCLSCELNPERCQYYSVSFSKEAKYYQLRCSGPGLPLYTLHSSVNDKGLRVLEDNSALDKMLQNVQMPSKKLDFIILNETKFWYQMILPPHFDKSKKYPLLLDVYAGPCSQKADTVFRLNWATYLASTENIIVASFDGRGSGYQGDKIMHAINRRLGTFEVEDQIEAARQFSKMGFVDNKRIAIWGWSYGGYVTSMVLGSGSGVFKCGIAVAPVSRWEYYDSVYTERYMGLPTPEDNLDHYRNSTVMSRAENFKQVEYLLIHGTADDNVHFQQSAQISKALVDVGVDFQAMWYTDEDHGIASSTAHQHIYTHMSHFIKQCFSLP

In the case of `CCCCCCN(Cc1cn(CCOCCOCCNC(=O)c2nc(C(F)(F)F)n3c2CN(C(=O)C[C@H](N)Cc2cc(F)c(F)cc2F)CC3)nn1)CC(O)C(O)C(O)C(O)CO` (stereo partly drawn) [Compound 47, 7-((R)-3-amino-4-(2,4,5-trifluorophenyl)butanoyl)-N-(2-(2-(2-(4-((hexyl(2,3,4,5,6-pentahydroxyhexyl)amino)methyl)-1H-1,2,3-triazol-1-yl)ethoxy)ethoxy)ethyl)-3-(trifluoromethyl)-5,6,7,8-tetrahydroimidazo[1,5-a]pyrazine-1-carboxamide], the IC50 in series [1] came to 2.2 nM.
Same read-out and setting: the result for `N[C@@H](CC(=O)N1CCn2c(C(F)(F)F)nc(C(=O)OCCOCCOCCn3cc(CN(C[C@H](O)[C@@H](O)[C@H](O)[C@H](O)CO)C[C@H](O)[C@@H](O)[C@H](O)[C@H](O)CO)nn3)c2C1)Cc1cc(F)c(F)cc1F` [Compound 48, 2-(2-(2-(4-((bis((2S,3R,4R,5R)-2,3,4,5,6-pentahydroxyhexyl)amino)methyl)-1H-1,2,3-triazol-1-yl)ethoxy)ethoxy)ethyl 7-((R)-3-amino-4-(2,4,5-trifluorophenyl)butanoyl)-3-(trifluoromethyl)-5,6,7,8-tetrahydroimidazo[1,5-a]pyrazine-1-carboxylate] reads 0.55 nM; that for `N[C@@H](CC(=O)N1CCn2c(C(F)(F)F)nc(C(=O)OCCN3CCOCC3)c2C1)Cc1cc(F)c(F)cc1F` [Compound 49, (R)-4-(1-((2-morpholinoethoxy)carbonyl)-3-(trifluoromethyl)-5,6-dihydroimidazo[1,5-a]pyrazin-7(8H)-yl)-4-oxo-1-(2,4,5-trifluorophenyl)butan-2-aminium (2R,3S)-3-carboxy-2,3-dihydroxypropanoate], 0.82 nM.
Same read-out and setting: the result for `N[C@@H](CC(=O)N1CCn2c(C(F)(F)F)nc(C(=O)NCCOCCN3CCOCC3)c2C1)Cc1cc(F)c(F)cc1F` [Compound 50, (R)-4-(1-((2-(2-morpholinoethoxy)ethyl)carbamoyl)-3-(trifluoromethyl)-5,6-dihydroimidazo[1,5-a]pyrazin-7(8H)-yl)-4-oxo-1-(2,4,5-trifluorophenyl)butan-2-aminium (2R,3R)-3-carboxy-2,3-dihydroxypropanoate] reads 0.54 nM; that for `N[C@@H](CC(=O)N1CCn2c(C(F)(F)F)nc(C(=O)OCCCN3CCOCC3)c2C1)Cc1cc(F)c(F)cc1F` [Compound 51, (R)-4-(1-((3-morpholinopropoxy)carbonyl)-3-(trifluoromethyl)-5,6-dihydroimidazo[1,5-a]pyrazin-7(8H)-yl)-4-oxo-1-(2,4,5-trifluorophenyl)butan-2-aminium (2R,3R)-3-carboxy-2,3-dihydroxypropanoate], 0.18 nM; that for `N[C@@H](CC(=O)N1CCn2c(C(F)(F)F)nc(C(=O)OCCOCCN3CCOCC3)c2C1)Cc1cc(F)c(F)cc1F` [Compound 52, (R)-4-(1-((2-(2-morpholinoethoxy)ethoxy)carbonyl)-3-(trifluoromethyl)-5,6-dihydroimidazo[1,5-a]pyrazin-7(8H)-yl)-4-oxo-1-(2,4,5-trifluorophenyl)butan-2-aminium (2R,3R)-3-carboxy-2,3-dihydroxypropanoate], 0.54 nM.
Consider `N[C@@H](CC(=O)N1CCn2c(C(F)(F)F)nc(C(=O)OCCCCCN3CCOCC3)c2C1)Cc1cc(F)c(F)cc1F` [Compound 53, (R)-4-(1-(((5-morpholinopentyl)oxy)carbonyl)-3-(trifluoromethyl)-5,6-dihydroimidazo[1,5-a]pyrazin-7(8H)-yl)-4-oxo-1-(2,4,5-trifluorophenyl)butan-2-aminium (2R,3R)-3-carboxy-2,3-dihydroxypropanoate], for which the IC50 in series [1] is 1 nM.
The same measure, in the same setting: the result for `N[C@@H](CC(=O)N1CCn2c(C(F)(F)F)nc(C(=O)OCCCCN3CCOCC3)c2C1)Cc1cc(F)c(F)cc1F` [Compound 54, (R)-4-(1-((4-morpholinobutoxy)carbonyl)-3-(trifluoromethyl)-5,6-dihydroimidazo[1,5-a]pyrazin-7(8H)-yl)-4-oxo-1-(2,4,5-trifluorophenyl)butan-2-aminium (2R,3R)-3-carboxy-2,3-dihydroxypropanoate] reads 0.5 nM; that for `CN1CC2(CC(NC(=O)c3nc(C(F)(F)F)n4c3CN(C(=O)C[C@H](N)Cc3cc(F)c(F)cc3F)CC4)C2)C1` [Compound 55, (R)-4-(1-((2-methyl-2-azaspiro[3.3]heptan-6-yl)carbamoyl)-3-(trifluoromethyl)-5,6-dihydroimidazo[1,5-a]pyrazin-7(8H)-yl)-4-oxo-1-(2,4,5-trifluorophenyl)butan-2-aminium (2R,3R)-3-carboxy-2,3-dihydroxypropanoate], 17.8 nM.
Take `COC(=O)c1nc(C(F)(F)F)n2c1CN(C(=O)C[C@H](N)Cc1cc(F)c(F)cc1F)CC2` [retagliptin, reference compound]: in series [2], the “level in the lung after 48 h” value is recorded as “very low”.

Values taken from US20240174675A1, “SMALL MOLECULE REGULATORS OF ALVEOLAR TYPE 2 CELL PROLIFERATION FOR THE TREATMENT OF PULMONARY DISEASES” (THE SCRIPPS RESEARCH INSTITUTE, priority 2021, published 2024).
